Test results reported in US20100086483A1, “METHOD OF MULTIDETECTOR COMPUTED TOMAGRAPHY” (Gilead Palo Alto, Inc., priority 2008, published 2010).

How the values were obtained:
[1] = Plasma caffeine concentrations in conscious dogs; type: in vivo; conditions: dog, intravenous, 10 mg/kg
Protocol: Three experiments were performed on each dog in the group.
(§1) Each dog received an IV injection of 5 μg/kg of regadenoson. […] LVSP, LV dP/dtMax, MAP, HR and CBF were recorded continuously. Blood samples were taken from the left atrial catheter at 1, 3, 5, 15, 30, 45 and 60 min following injections of regadenoson.

[2] = tested on: conscious dogs; test: Effects of caffeine on regadenoson-induced coronary vasodilation and changes in hemodynamics in conscious dogs (Part II); type: in vivo, dog; conditions: for change of maximum increase in CBF induced by regadenoson vs control: regadenoson 5 μg/kg IV, p>0.05
Protocol: Sixteen chronically instrumented male mongrel dogs weighing from 22-30 kg were used in the study. The animal protocol was approved by the Institutional Animal Care and Use Committee of New York Medical College and conforms to the Guide for the Care and Use of Laboratory Animal by the United States National Institutes of Health.
Dogs were sedated with acepromazine (0.3 mg/kg, IM) and anesthetized with pentobarbital sodium (25 mg/kg, IV). After intubation, dogs were artificially ventilated with room air. A thoracotomy was made in the fifth intercostal space using sterile techniques. A Tygon catheter (Cardiovascular Instruments, Wakefield, Mass.) was inserted into the descending thoracic aorta and another one was inserted into the left atrium. In 9 dogs, an ultrasound flow transducer (Transonic Systems, Ithaca, N.Y.) was placed around the left circumflex coronary artery. A solid-state pressure gauge (P6.5, Konisberg Instruments, Pasadena, Calif.) was placed into the left ventricle through the apex. The chest was closed in layers. The catheters and wires were tunneled subcutaneously and externalized through the skin at the back of the dog's neck. Dogs were allowed to recover from the surgery before experiments were performed, and were trained to lie on a table.
Phasic arterial pressure was measured by connecting the aortic catheter to a strain gauge transducer (P23 ID, LDS Test and Measurement, Valley View, Ohio). Left ventricular pressures were measured by the solid pressure gauge. CBF (mL/min) was measured from an ultrasound flow transducer using a Transonic flowmeter (T206, Transonic Systems, Ithaca, N.Y.). Two indices were used to describe the regadenoson-induced coronary vasodilation: 1) the maximum increase in CBF and 2) the duration of the 2-fold increase in CBF (the period of time that CBF was elevated to a level ≧2-fold of baseline CBF). All pressure and flow data were acquired and analyzed using a Ponemah System (Version 3.30 or 4.20, LDS Test and Measurement, Valley View, Ohio). MAP and HR were calculated from phasic blood pressure, and LV dP/dtMax was calculated from the left ventricular systolic pressure.
On the day of an experiment, a dog was placed on a table, where it lay quietly during the experiment. A catheter was inserted into a peripheral vein in the leg and attached to an infusion line to administer drugs without disturbing the dog. The experiment was begun after MAP, HR and CBF were stable.
as §1
In 4 dogs, two doses of regadenoson (5 μg/kg, IV) were given 90 min apart (without blood sampling) to determine if there is tachyphylaxis of regadenoson-induced coronary vasodilation.
The statistical significance of a difference between the value of a parameter at baseline and at the indicated time point after drug administration was determined using a One-Way Repeated Measures ANOVA followed by Tukey's Test. […] Results with p<0.05 were considered to be significant. […] All data are presented as Mean±SEM.

[3] = regadenoson 5 μg/kg IV 45 min after caffeine 1 mg/kg IV, 1 min
[4] = regadenoson 5 μg/kg IV 45 min after caffeine 1 mg/kg IV, 2 min
[5] = regadenoson 5 μg/kg IV 45 min after caffeine 1 mg/kg IV, 3 min
[6] = regadenoson 5 μg/kg IV 45 min after caffeine 1 mg/kg IV, 20 min
[7] = regadenoson 5 μg/kg IV 45 min after caffeine 2 mg/kg IV, 1 min

**Q.** For `Cn1c(=O)c2c(ncn2C)n(C)c1=O` [Caffeine, caffeine], which concentration at 45 min [1] is on record?
**A.** 52 ± 2 µM

**Q.** And the HR ([2]; 45 min after caffeine 1 mg/kg IV, before regadenoson (baseline))?
**A.** 74 ± 5 bpm

**Q.** What about the HR ([2]; 45 min after caffeine 2 mg/kg IV, before regadenoson (baseline)) of the same compound?
**A.** 75 ± 5 bpm

**Q.** What about the HR ([2]; 45 min after caffeine 4 mg/kg IV, before regadenoson (baseline)) of the same compound?
**A.** 81 ± 9 bpm

**Q.** What about the HR ([2]; 45 min after caffeine 10 mg/kg IV, before regadenoson (baseline)) of the same compound?
**A.** 78 ± 6 bpm

**Q.** And the “baseline CBF before vs after caffeine treatment” value ([2]; 45 min after caffeine 1, 2, 4 and 10 mg/kg)?
**A.** not significantly different

**Q.** And the “change of maximum increase in CBF induced by regadenoson vs control” value (from here on “change of maximum increase”) ([2]; caffeine 1 mg/kg IV)?
**A.** 2±3%

**Q.** What about the “change of maximum increase” value ([2]; caffeine 2 mg/kg IV) of the same compound?
**A.** −0.7±3%

**Q.** What about the “change of maximum increase” value ([2]; caffeine 4 mg/kg IV) of the same compound?
**A.** −16±5%

**Q.** And the “change of maximum increase” value ([2]; caffeine 10 mg/kg IV)?
**A.** −13±8%

**Q.** What about the “effect on hemodynamics at 45 min following caffeine administration” value ([2]; caffeine at 1, 2, 4 or 10 mg/kg) of the same compound?
**A.** did not alter hemodynamics significantly

**Q.** And the “regadenoson-induced increase in LV dP/dtMax vs without caffeine” value ([2]; in the presence of caffeine 1 mg/kg)?
**A.** slightly greater

**Q.** What about the “regadenoson-induced increase in LV dP/dtMax vs without caffeine” value ([2]; in the presence of caffeine 10 mg/kg) of the same compound?
**A.** not altered

**Q.** What about the “regadenoson-induced increase in LV dP/dtMax vs without caffeine” value ([2]; in the presence of caffeine at 2 and 4 mg/kg) of the same compound?
**A.** slightly smaller

**Q.** What about the HR ([2]; regadenoson 5 μg/kg IV 45 min after caffeine 1 mg/kg IV, 0.5 min) of the same compound?
**A.** 126 ± 7 bpm

**Q.** And the HR [2, 3]?
**A.** 135 ± 9 bpm

**Q.** And the MAP [2, 3]?
**A.** 100 ± 4 mm Hg

**Q.** And the HR [2, 4]?
**A.** 131 ± 12 bpm

**Q.** What about the MAP [2, 4] of the same compound?
**A.** 102 ± 4 mm Hg

**Q.** And the HR [2, 5]?
**A.** 119 ± 9 bpm

**Q.** And the MAP [2, 5]?
**A.** 101 ± 5 mm Hg

**Q.** What about the HR ([2]; regadenoson 5 μg/kg IV 45 min after caffeine 1 mg/kg IV, 4 min) of the same compound?
**A.** 110 ± 4 bpm

**Q.** And the HR ([2]; regadenoson 5 μg/kg IV 45 min after caffeine 1 mg/kg IV, 5 min)?
**A.** 106 ± 7 bpm

**Q.** And the HR ([2]; regadenoson 5 μg/kg IV 45 min after caffeine 1 mg/kg IV, 10 min)?
**A.** 89 ± 7 bpm

**Q.** And the HR ([2]; regadenoson 5 μg/kg IV 45 min after caffeine 1 mg/kg IV, 15 min)?
**A.** 87 ± 7 bpm

**Q.** What about the HR [2, 6] of the same compound?
**A.** 81 ± 8 bpm

**Q.** And the MAP [2, 6]?
**A.** 102 ± 4 mm Hg

**Q.** What about the HR ([2]; regadenoson 5 μg/kg IV 45 min after caffeine 2 mg/kg IV, 0.5 min) of the same compound?
**A.** 121 ± 10 bpm

**Q.** What about the HR [2, 7] of the same compound?
**A.** 125 ± 10 bpm

**Q.** What about the MAP [2, 7] of the same compound?
**A.** 102 ± 7 mm Hg

**Q.** What about the HR ([2]; regadenoson 5 μg/kg IV 45 min after caffeine 2 mg/kg IV, 2 min) of the same compound?
**A.** 122 ± 5 bpm

**Q.** What about the HR ([2]; regadenoson 5 μg/kg IV 45 min after caffeine 2 mg/kg IV, 3 min) of the same compound?
**A.** 110 ± 3 bpm

**Q.** And the HR ([2]; regadenoson 5 μg/kg IV 45 min after caffeine 2 mg/kg IV, 4 min)?
**A.** 106 ± 4 bpm

**Q.** And the HR ([2]; regadenoson 5 μg/kg IV 45 min after caffeine 2 mg/kg IV, 5 min)?
**A.** 97 ± 3 bpm

**Q.** What about the HR ([2]; regadenoson 5 μg/kg IV 45 min after caffeine 2 mg/kg IV, 10 min) of the same compound?
**A.** 84 ± 5 bpm

**Q.** What about the HR ([2]; regadenoson 5 μg/kg IV 45 min after caffeine 2 mg/kg IV, 15 min) of the same compound?
**A.** 85 ± 6 bpm

**Q.** And the HR ([2]; regadenoson 5 μg/kg IV 45 min after caffeine 2 mg/kg IV, 20 min)?
**A.** 84 ± 5 bpm

**Q.** And the HR ([2]; regadenoson 5 μg/kg IV 45 min after caffeine 4 mg/kg IV, 0.5 min)?
**A.** 126 ± 12 bpm

**Q.** And the HR ([2]; regadenoson 5 μg/kg IV 45 min after caffeine 4 mg/kg IV, 1 min)?
**A.** 114 ± 11 bpm

**Q.** What about the HR ([2]; regadenoson 5 μg/kg IV 45 min after caffeine 4 mg/kg IV, 2 min) of the same compound?
**A.** 106 ± 12 bpm

**Q.** What about the HR ([2]; regadenoson 5 μg/kg IV 45 min after caffeine 4 mg/kg IV, 3 min) of the same compound?
**A.** 102 ± 7 bpm

**Q.** And the HR ([2]; regadenoson 5 μg/kg IV 45 min after caffeine 4 mg/kg IV, 4 min)?
**A.** 94 ± 8 bpm

**Q.** What about the HR ([2]; regadenoson 5 μg/kg IV 45 min after caffeine 4 mg/kg IV, 5 min) of the same compound?
**A.** 94 ± 7 bpm

**Q.** And the HR ([2]; regadenoson 5 μg/kg IV 45 min after caffeine 4 mg/kg IV, 10 min)?
**A.** 85 ± 8 bpm

**Q.** And the HR ([2]; regadenoson 5 μg/kg IV 45 min after caffeine 4 mg/kg IV, 15 min)?
**A.** 85 ± 8 bpm

**Q.** What about the HR ([2]; regadenoson 5 μg/kg IV 45 min after caffeine 4 mg/kg IV, 20 min) of the same compound?
**A.** 87 ± 7 bpm

**Q.** What about the HR ([2]; regadenoson 5 μg/kg IV 45 min after caffeine 10 mg/kg IV, 0.5 min) of the same compound?
**A.** 115 ± 12 bpm

**Q.** And the HR ([2]; regadenoson 5 μg/kg IV 45 min after caffeine 10 mg/kg IV, 1 min)?
**A.** 102 ± 6 bpm

**Q.** And the HR ([2]; regadenoson 5 μg/kg IV 45 min after caffeine 10 mg/kg IV, 2 min)?
**A.** 106 ± 11 bpm

**Q.** And the HR ([2]; regadenoson 5 μg/kg IV 45 min after caffeine 10 mg/kg IV, 3 min)?
**A.** 96 ± 7 bpm

**Q.** What about the HR ([2]; regadenoson 5 μg/kg IV 45 min after caffeine 10 mg/kg IV, 4 min) of the same compound?
**A.** 94 ± 8 bpm

**Q.** What about the HR ([2]; regadenoson 5 μg/kg IV 45 min after caffeine 10 mg/kg IV, 5 min) of the same compound?
**A.** 93 ± 5 bpm

**Q.** What about the HR ([2]; regadenoson 5 μg/kg IV 45 min after caffeine 10 mg/kg IV, 10 min) of the same compound?
**A.** 88 ± 7 bpm

**Q.** And the HR ([2]; regadenoson 5 μg/kg IV 45 min after caffeine 10 mg/kg IV, 15 min)?
**A.** 88 ± 6 bpm

**Q.** What about the HR ([2]; regadenoson 5 μg/kg IV 45 min after caffeine 10 mg/kg IV, 20 min) of the same compound?
**A.** 86 ± 4 bpm
